Reference: patent US11242327B2, “Analgesic compounds” (RECURIUM IP HOLDINGS, LLC, priority 2017, dated 2022)

How the values were obtained:
Type in all cases: in vivo
[1] = system: male Sprague-Dawley rats; assay: UVB Inflammatory Pain Test (thermal hyperalgesia); settings: rat, oral, 30 mg/kg
Description: UVB irradiation to the surface of the hind paw was used to induce cutaneous inflammatory pain in non-fasted male Sprague-Dawley rats weighing 175-300 g. On Day −3, animals were restrained and the plantar surface of the left hind paw was exposed to 350 mJoules/cm^2 of UVB irradiation using a narrow band UVB light source (Daavlin®, Bryan, Ohio). Following UVB irradiation, animals were returned to their home cage. Thermal hyperalgesia was assessed prior to dosing and approximately 1, 2, and 4 hours after dosing on Day 0 using a radiant heat plantar test apparatus (IITC Life Sciences©; Woodland Hills, Calif.). Animals were placed in individual acrylic chambers on a glass platform warmed to 30±2° C. and allowed to acclimate to their surroundings for a minimum of 15 minutes before testing. The stimulus was presented to the plantar surface and the timer was activated. The stimulus intensity was set such that pre-injury paw withdrawal latencies were approximately 12-18 seconds. Paw withdrawal latency values were recorded at the first observed nocifensive behavior (paw withdrawal, flinching, biting and/or licking). Three paw withdrawal latencies were measured for each hind paw per time point. The mean of the 3 values was taken as the paw withdrawal latency for that time point. A maximum cutoff latency of 30 seconds was used to prevent injury to the animal. The mean and standard error of the mean (SEM) were determined for each paw for each treatment group at each time point. Test compounds were administered orally at concentrations of 3, 10, 30 or 100 mg/kg; celecoxib was administered orally at a concentration of 30 mg/kg; and acetaminophen was administered orally at a concentration of 300 mg/kg. The control group received the vehicle (sterile water). In Table 4, ‘A’ designates >8 seconds of paw withdrawal latency, ‘B’ designates >6 and <8 seconds of paw withdrawal latency, and ‘C’ designates <6 seconds of paw withdrawal latency.
The results provided in Table 4 are for oral administration in rats. […] Furthermore, while acetaminophen was dosed at 300 mg/kg, compounds of Formulae (Ie), (Ih) and (Ik), or a pharmaceutically acceptable salt of any of the foregoing, were dosed at 3 mg/kg, 10 mg/kg and 100 mg/kg.

[2] = system: male Sprague-Dawley rats; assay: Osteoarthritis Pain Test (MIA, mechanical hyperalgesia); settings: rat, oral once daily, 30 mg/kg
Description: Osteoarthritis pain was induced in non-fasted male Sprague-Dawley rats weighing 150-250 g by injecting 2 mg of monosodium iodoacetate (MIA) into the left knee joint. Mechanical hyperalgesia was measured using a digital Randall-Selitto device (dRS; IITC Life Sciences©; Woodland Hills, Calif.). Animals were allowed to acclimate to the testing room for a minimum of 15 minutes before testing. Animals were placed in a restraint sling that suspended the animal, leaving the hind limbs available for testing. The stimulus was applied to the knee joint by a blunt tip and pressure was applied gradually over approximately 10 seconds. Joint compression threshold values were recorded at the first observed nocifensive behavior (vocalization, struggle, or withdrawal). One reading per joint was taken at each time point, and a maximum stimulus cutoff of 500 grams was used to prevent injury to the animal. Mechanical hyperalgesia was assessed prior to MIA injection, and again 14 days later. After 14 days, test or control articles were administered once daily for 7 days with mechanical hyperalgesia assessed prior to dosing, 1, 2, and 4 hours post-dosing on days 0, 3, and 6. Test compounds were administered orally at concentrations of 3, 10, 30 or 100 mg/kg and celecoxib was administered orally at a concentration of 30 mg/kg. The control group received the vehicle (sterile water). After day 0, groups receiving the 100 mg/kg dose were reduced to a dose of 3 mg/kg. In Table 5, ‘A’ designates ≥375 grams of joint compression, ‘B’ designates ≥325 and <375 grams of joint compression, and ‘C’ designates <325 grams of joint compression.
The results provided in Table 5 are for oral administration in rats.

[3] = system: male Sprague-Dawley rats; assay: Formalin Paw Test, rat, oral; settings: 30 mg/kg; for Early Phase, seconds of paw licking: early/acute phase (0-10 minutes); for Late Phase, seconds of paw licking: late/tonic phase (10-35 minutes)
Description: One test compound or the vehicle was administered to each rat or mouse in each test group (8 rats or mice per group). Non-fasted male Sprague-Dawley rats weighing 200-225 g or non-fasted male ICR mice weighing 23±3 g were used. […] Responses were measured every 5 minutes after the formalin injection for 35 minutes. The results in Table 2 are for oral administration in rat and the results in Table 3 are for intraperitoneal administration in mouse. In Tables 2 and 3, 'A' designates <70 seconds of paw licking, 'B' designates >70 and <165 seconds of paw licking, and 'C' designates >165 seconds of paw licking.

Cc1ccc(-c2cc(C(F)(F)F)nn2-c2ccc(S(N)(=O)=O)cc2)cc1 [Celecoxib, reference compound]
paw withdrawal latency, 1 h ([1]; 1 h after dosing): A (>8 seconds of paw withdrawal latency) | paw withdrawal latency, 2 h ([1]; 2 h after dosing): A (>8 seconds of paw withdrawal latency) | paw withdrawal latency, 4 h ([1]; 4 h after dosing): A (>8 seconds of paw withdrawal latency) | joint compression threshold, Day 0, 1 h ([2]; Day 0, 1 h post-dosing): B (≥325 and <375 grams of joint compression) | joint compression threshold, Day 0, 2 h ([2]; Day 0, 2 h post-dosing): A (≥375 grams of joint compression) | joint compression threshold, Day 0, 4 h ([2]; Day 0, 4 h post-dosing): B (≥325 and <375 grams of joint compression) | joint compression threshold, Day 3, 1 h ([2]; Day 3, 1 h post-dosing): C (<325 grams of joint compression) | joint compression threshold, Day 3, 2 h ([2]; Day 3, 2 h post-dosing): A (≥375 grams of joint compression) | joint compression threshold, Day 3, 4 h ([2]; Day 3, 4 h post-dosing): A (≥375 grams of joint compression) | joint compression threshold, Day 6, 1 h ([2]; Day 6, 1 h post-dosing): B (≥325 and <375 grams of joint compression) | joint compression threshold, Day 6, 2 h ([2]; Day 6, 2 h post-dosing): A (≥375 grams of joint compression) | joint compression threshold, Day 6, 4 h ([2]; Day 6, 4 h post-dosing): A (≥375 grams of joint compression)

CC(F)(F)C12CC(N)(C1)C2.Cl [Compound 19, 3-(1,1-Difluoroethyl)bicyclo[1.1.1]pentan-1-amine hydrochloride]
Early Phase, seconds of paw licking [3]: A (<70 seconds of paw licking) | Late Phase, seconds of paw licking [3]: B (>70 and <165 seconds of paw licking)

CCNC12CC(C(F)(F)F)(C1)C2.Cl [Compound 8, N-Ethyl-3-(trifluoromethyl)bicyclo[1.1.1]pentan-1-amine hydrochloride]
Early Phase, seconds of paw licking [3]: A (<70 seconds of paw licking) | Late Phase, seconds of paw licking [3]: C (>165 seconds of paw licking)

Cl.NC12CC(c3cccc(C(F)(F)F)c3)(C1)C2 [Compound 5]
Early Phase, seconds of paw licking [3]: A (<70 seconds of paw licking) | Late Phase, seconds of paw licking [3]: B (>70 and <165 seconds of paw licking)

Cl.NC12CC(c3ccnc(C(F)(F)F)n3)(C1)C2 [Compound 11, 3-(2-(Trifluoromethyl)pyrimidin-4-yl)bicyclo[1.1.1]pentan-1-amine hydrochloride]
Early Phase, seconds of paw licking [3]: A (<70 seconds of paw licking) | Late Phase, seconds of paw licking [3]: C (>165 seconds of paw licking)

Cl.NC12CC(c3nccc(C(F)(F)F)n3)(C1)C2 [Compound 12, 3-(4-(Trifluoromethyl)pyrimidin-2-yl)bicyclo[1.1.1]pentan-1-amine hydrochloride]
Early Phase, seconds of paw licking [3]: A (<70 seconds of paw licking) | Late Phase, seconds of paw licking [3]: C (>165 seconds of paw licking)

Cl.NC12CC(c3nc4cc(F)ccc4[nH]3)(C1)C2 [Compound 17, 3-(5-fluoro-1H-benzo[d]imidazol-2-yl)bicyclo[1.1.1]pentan-1-amine hydrochloride]
Early Phase, seconds of paw licking [3]: A (<70 seconds of paw licking) | Late Phase, seconds of paw licking [3]: C (>165 seconds of paw licking)

CC(C)=C(F)C12CC(N)(C1)C2.Cl [Compound 21, 3-(1-fluoro-2-methylprop-1-en-1-yl)bicyclo[1.1.1]pentan-1-amine hydrochloride]
Early Phase, seconds of paw licking [3]: A (<70 seconds of paw licking) | Late Phase, seconds of paw licking [3]: C (>165 seconds of paw licking)

Cl.NC12CC(c3ccc(Cl)cc3)(C1)C2 [Compound 10, 3-(4-Chlorophenyl)bicyclo[1.1.1]pentan-1-amine hydrochloride]
Early Phase, seconds of paw licking [3]: A (<70 seconds of paw licking) | Late Phase, seconds of paw licking [3]: A (<70 seconds of paw licking)

Cl.NC12CC(c3nc4cc(Cl)ccc4o3)(C1)C2 [Compound 16, 3-(5-chlorobenzo[d]oxazol-2-yl)bicyclo[1.1.1]pentan-1-amine hydrochloride]
Early Phase, seconds of paw licking [3]: A (<70 seconds of paw licking) | Late Phase, seconds of paw licking [3]: C (>165 seconds of paw licking)
